In US6645736B2, “Calcium independent cytosolic phospholipase A2/B enzymes” (Genetics Institute, LLC, priority 1994, dated 2003):

Legend:
[1] = biological target: T1, calcium independent cytosolic phospholipase A2/B (Cricetulus griseus, UniProt A0A3L7I2I8); assay: Phospholipase hydrolysis assays, format not specified; type: biochemical, Chinese hamster
T1 construct: purified from the cytosol of Chinese hamster ovary (CHO) cells; endogenous in cells; host or cells: CHO cells (cytosol; Mono P / heparin / size-exclusion fractions)
T1 sequence (A0A3L7I2I8 1-752 isoform A0A3L7I2I8-2): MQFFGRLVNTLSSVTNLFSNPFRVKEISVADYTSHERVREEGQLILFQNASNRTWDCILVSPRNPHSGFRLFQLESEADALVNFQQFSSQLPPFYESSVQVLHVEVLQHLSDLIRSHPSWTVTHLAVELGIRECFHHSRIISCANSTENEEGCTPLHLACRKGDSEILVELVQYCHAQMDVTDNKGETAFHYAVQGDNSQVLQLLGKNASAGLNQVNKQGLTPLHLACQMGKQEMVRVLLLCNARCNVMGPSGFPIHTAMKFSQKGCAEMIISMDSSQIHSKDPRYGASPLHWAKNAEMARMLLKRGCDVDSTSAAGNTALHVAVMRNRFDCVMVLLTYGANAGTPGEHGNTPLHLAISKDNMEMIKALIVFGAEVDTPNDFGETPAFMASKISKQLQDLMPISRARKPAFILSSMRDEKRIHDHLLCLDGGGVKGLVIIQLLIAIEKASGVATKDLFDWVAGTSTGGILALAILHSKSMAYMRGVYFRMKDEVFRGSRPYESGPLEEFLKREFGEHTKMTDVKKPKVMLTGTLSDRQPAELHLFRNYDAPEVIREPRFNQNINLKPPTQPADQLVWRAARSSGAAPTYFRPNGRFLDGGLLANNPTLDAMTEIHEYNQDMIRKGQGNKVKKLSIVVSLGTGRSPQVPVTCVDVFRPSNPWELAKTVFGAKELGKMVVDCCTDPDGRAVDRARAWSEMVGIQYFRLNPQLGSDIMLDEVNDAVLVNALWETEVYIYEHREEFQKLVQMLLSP
Experimental: 1. sn-2 Hydrolysis Assays
(§1) A) Liposome: The lipid, e.g. 1-palmitoyl-2-[^14C]arachidonyl-sn-glycero-3-phosphocholine (PAPC), 55 mCi/mmol, was dried under a stream of nitrogen and solubilized in ethanol. The assay buffer contained 100 mM Tris-HCl pH 7, 4 mM EDTA, 4 mM EGTA, 10% glycerol and 25 μM of labelled PAPC, where the volume of ethanol added was no more than 10% of the final assay volume. The reaction was incubated for 30 minutes at 37° C. and quenched by the addition of two volumes of heptane:isopropanol:0.5M sulfuric acid (105:20:1 v/v). Half of the organic was applied to a disposable silica gel column in a vacuum manifold positioned over a scintillation vial, and the free arachidonic was eluted by the addition of ethyl ether (1 ml). The level of radioactivity was measured by liquid scintillation.
B) Mixed Micelle Basic: The lipid was dried down as in (A) and to this was added the assay buffer consisting of 80 mM glycine pH 9, 5 mM CaCl2 or 5 mM EDTA, 10% or 70% glycerol and […] triton X-100. The mixture was then sonicated for 30-60 seconds at 4° C. to form mixed micelles.
C) Mixed Micelle Neutral: As for (B) except 100 mM Tris-HCl pH 7 was used instead of glycine as the buffer.
Sn-1 hydrolysis assays are performed as described above for […], but using phospholipids labelled at the sn-1 substituent, e.g. 1-[^14C]-palmitoyl-2-arachidonyl-sn-glycero-3-phophocholine.

[2] = biological target: T1, calcium independent cytosolic phospholipase A2/B; assay: Liposome assay (Example 3A); type: biochemical, Chinese hamster; details: assay of Example 3A (liposome)
Experimental: as §1, with “The reaction was incubated for 30 minutes at 37° C. and quenched by the addition of two volumes of heptane:isopropanol:0.5M sulfuric acid (105:20:1 v/v).” left out
Variations on this assay replace EDTA and EGTA with 10 mM CaCl2.

cPLA2 = biological target: T2, cPLA2 (Homo sapiens, UniProt P47712); details: comparison enzyme; cited from earlier work
T2 sequence (P47712 1-749): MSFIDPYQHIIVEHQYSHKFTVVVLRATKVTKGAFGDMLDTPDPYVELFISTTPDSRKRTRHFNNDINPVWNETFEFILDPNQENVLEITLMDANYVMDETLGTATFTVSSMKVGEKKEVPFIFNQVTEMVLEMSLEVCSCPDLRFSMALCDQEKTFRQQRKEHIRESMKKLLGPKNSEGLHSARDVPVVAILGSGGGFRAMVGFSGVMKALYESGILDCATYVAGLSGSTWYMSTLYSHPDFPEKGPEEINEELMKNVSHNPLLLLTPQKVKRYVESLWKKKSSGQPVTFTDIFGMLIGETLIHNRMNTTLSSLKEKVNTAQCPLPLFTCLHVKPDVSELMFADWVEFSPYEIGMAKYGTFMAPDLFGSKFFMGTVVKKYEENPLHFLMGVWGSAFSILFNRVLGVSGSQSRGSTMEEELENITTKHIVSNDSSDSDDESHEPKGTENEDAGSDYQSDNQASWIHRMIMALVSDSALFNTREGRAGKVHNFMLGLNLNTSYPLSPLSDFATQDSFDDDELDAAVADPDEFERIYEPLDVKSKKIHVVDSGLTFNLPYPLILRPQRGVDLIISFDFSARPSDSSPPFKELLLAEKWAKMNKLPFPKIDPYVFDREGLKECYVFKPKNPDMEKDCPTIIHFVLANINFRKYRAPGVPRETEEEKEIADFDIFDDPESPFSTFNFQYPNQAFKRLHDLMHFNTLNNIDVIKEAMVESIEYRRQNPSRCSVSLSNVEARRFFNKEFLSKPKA

**Q.** For `C[C@H](CCC(=O)NCCC[N+](C)(C)CCCS(=O)(=O)[O-])[C@H]1CC[C@H]2[C@@H]3[C@H](O)C[C@@H]4C[C@H](O)CC[C@]4(C)[C@H]3C[C@H](O)[C@]12C` [CHAPS], which “inactivation of the enzyme by detergents” value [1] is on record?
**A.** inactivated

**Q.** With `Nc1ncnc2c1ncn2[C@@H]1O[C@H](COP(=O)(O)OP(=O)(O)OP(=O)(O)O)[C@@H](O)[C@H]1O` [adenosine triphosphate] as the molecule, how does the “effect on enzyme activity” value [2] read?
**A.** not stimulated

**Q.** For `[Ca+2]` [calcium], which “effect on enzyme activity” value ([1]; in all assays) is on record?
**A.** suppressed

**Q.** For `CCCCCCCCO[C@@H]1O[C@H](CO)[C@@H](O)[C@H](O)[C@H]1O` [octyl glucoside], which “inactivation of the enzyme by detergents” value [1] is on record?
**A.** inactivated

**Q.** With `NC(N)=O` [urea] as the molecule, how does the “denaturant concentration that inactivates the enzyme” value ([1]; high concentration denaturants) read?
**A.** above 3 M

**Q.** With triton X-100 as the molecule, how does the “effect on enzyme activity” value [2] read?
**A.** suppressed

B1: calcium independent phospholipase: 86 kD calcium independent cytosolic phospholipase enzyme purified from the cytosol of CHO cells, SEQ ID NO:2 (protein)
chain: T1 sequence (A0A3L7I2I8 1-752 isoform A0A3L7I2I8-2)
**Q.** Which pH optimum [1] does the source give for B1 here?
**A.** 6

**Q.** What about the “initial rate of hydrolysis, sn-2 position higher than sn-1” value ([1]; PAPC with either palmitoyl or arachidonyl labelled with 14C) of the same molecule?
**A.** 2-3 fold

B2: cPLA2: 110 kD calcium dependent cytosolic phospholipase A2 of U.S. Pat. No. 5,322,776 (protein, UniProt P47712 1-749, looked up)
Cytosolic phospholipase A2: T2 sequence (P47712 1-749)
**Q.** Which pH optimum (cPLA2) does the source give for B2 here?
**A.** greater than 8
